Where two headings read alike, the source gives them in different places.
Legend:
[1] = molecular target: T1, PBP3 (Pseudomonas aeruginosa, UniProt G3XD46); test: Bocillin-FL competition in whole cells; assay type: cell-based; parameters: gene ftsI; native full-length protein in intact P. aeruginosa PAO1 cells, Bocillin-FL labelled; settings: intact PAO1 cells, 30 min incubation, covalent
[2] = molecular target: T2, PBP4 (Pseudomonas aeruginosa, UniProt Q9HZG1); test: Bocillin-FL competition in whole cells; assay type: cell-based; settings: intact PAO1 cells, 30 min incubation, covalent
T2 construct: gene PA3047; native full-length protein in intact P. aeruginosa PAO1 cells, Bocillin-FL labelled
T2 sequence (Q9HZG1 entry or part of it): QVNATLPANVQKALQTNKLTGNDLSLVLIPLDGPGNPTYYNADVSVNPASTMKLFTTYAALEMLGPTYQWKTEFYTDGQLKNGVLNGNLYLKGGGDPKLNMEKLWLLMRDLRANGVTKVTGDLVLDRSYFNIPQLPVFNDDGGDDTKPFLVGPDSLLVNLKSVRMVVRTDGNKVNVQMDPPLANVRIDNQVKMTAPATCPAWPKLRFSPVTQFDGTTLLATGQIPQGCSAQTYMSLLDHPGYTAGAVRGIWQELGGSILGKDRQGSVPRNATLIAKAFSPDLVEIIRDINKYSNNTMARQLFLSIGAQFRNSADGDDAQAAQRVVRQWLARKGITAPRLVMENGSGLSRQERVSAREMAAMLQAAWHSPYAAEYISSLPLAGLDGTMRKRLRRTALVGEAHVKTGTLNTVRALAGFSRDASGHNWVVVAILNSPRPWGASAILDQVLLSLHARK
From the text: Bocillin-FL competition in whole cells on PBP4

[3] = molecular target: T3, PBP5 (Pseudomonas aeruginosa, UniProt G3XD74); test: Bocillin-FL competition in whole cells; assay type: cell-based; settings: intact PAO1 cells, 30 min incubation, covalent
T3 construct: gene dacC; native full-length protein in intact P. aeruginosa PAO1 cells, Bocillin-FL labelled
T3 sequence (G3XD74 entry or part of it): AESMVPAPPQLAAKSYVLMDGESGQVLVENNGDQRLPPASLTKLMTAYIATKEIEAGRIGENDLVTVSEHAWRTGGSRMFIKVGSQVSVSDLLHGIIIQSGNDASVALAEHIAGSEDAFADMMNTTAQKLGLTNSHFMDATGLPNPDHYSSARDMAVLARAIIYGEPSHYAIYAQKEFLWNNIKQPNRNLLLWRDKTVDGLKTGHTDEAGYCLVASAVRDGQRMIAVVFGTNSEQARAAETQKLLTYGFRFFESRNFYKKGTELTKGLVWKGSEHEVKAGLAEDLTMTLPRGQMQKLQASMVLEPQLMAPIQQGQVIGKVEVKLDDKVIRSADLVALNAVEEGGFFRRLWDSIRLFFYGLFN

[4] = molecular target: T4, PBP2 (Pseudomonas aeruginosa, UniProt G3XCV7); test: Bocillin-FL competition in whole cells; assay type: cell-based; settings: intact PAO1 cells, 30 min incubation, covalent
T4 construct: gene pbpA; native full-length protein in intact P. aeruginosa PAO1 cells, Bocillin-FL labelled
T4 sequence (G3XCV7 1-646): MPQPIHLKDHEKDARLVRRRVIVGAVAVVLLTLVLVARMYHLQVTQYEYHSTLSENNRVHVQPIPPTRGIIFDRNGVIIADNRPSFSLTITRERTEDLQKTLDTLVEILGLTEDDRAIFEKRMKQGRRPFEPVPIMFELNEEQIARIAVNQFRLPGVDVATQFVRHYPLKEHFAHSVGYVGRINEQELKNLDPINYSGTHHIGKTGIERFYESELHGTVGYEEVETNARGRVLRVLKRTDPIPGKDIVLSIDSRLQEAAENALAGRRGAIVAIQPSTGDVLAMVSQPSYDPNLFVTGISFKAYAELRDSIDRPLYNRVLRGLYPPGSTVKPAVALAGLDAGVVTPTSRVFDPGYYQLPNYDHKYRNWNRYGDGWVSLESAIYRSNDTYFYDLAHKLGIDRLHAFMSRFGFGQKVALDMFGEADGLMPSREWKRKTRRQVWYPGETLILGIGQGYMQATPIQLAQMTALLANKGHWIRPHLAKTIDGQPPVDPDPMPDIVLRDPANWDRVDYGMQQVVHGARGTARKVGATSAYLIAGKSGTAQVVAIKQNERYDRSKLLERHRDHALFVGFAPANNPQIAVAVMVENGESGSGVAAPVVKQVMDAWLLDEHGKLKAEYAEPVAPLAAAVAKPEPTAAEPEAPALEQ
From the text: Bocillin-FL competition in whole cells on PBP2

[5] = molecular target: T1, PBP3; test: biochemical; parameters: gene ftsI; native protein in lysed PAO1; species or system Pseudomonas aeruginosa PAO1; Bocillin FL labelling competition of PBPs in lysed P. aeruginosa PAO1
From the text: Abstract Objectives The main objective of the present work was to dissect the interplay between penicillin-binding protein (PBP) occupancy, ampC transcriptional dynamics, and β-lactamase activity in Pseudomonas aeruginosa. Methods Using wild-type PAO1 and isogenic LMW-PBP knockout mutants (PAOΔdacB, PAOΔdacBdacC, and PAOΔdacBdacCpbpG), we assessed ampC induction following exposure to 18 β-lactams and β-lactamase inhibitors. PBP binding (IC50) was quantified via Bocillin-FL labelling. AmpC mRNA levels were measured by qRT-PCR, and β-lactamase activity was determined in crude extracts, periplasmic and extracellular fractions using nitrocefin and cefalotin substrates. […] Binding to PBP4 is a recognized trigger for ampC induction.

[6] = molecular target: T5, AmpC (Pseudomonas aeruginosa, UniProt P24735); test: inhibition of nitrocefin / cefalotin hydrolysis in crude extract; assay type: biochemical; settings: crude extract of PAOΔdacBdacCpbpG; 500 mg/L in Results (Methods: 50 and 100 μM); both substrates
T5 construct: native chromosomal enzyme in crude extract of constitutive AmpC-overproducing triple LMW-PBP knockout
T5 sequence (P24735 27-397): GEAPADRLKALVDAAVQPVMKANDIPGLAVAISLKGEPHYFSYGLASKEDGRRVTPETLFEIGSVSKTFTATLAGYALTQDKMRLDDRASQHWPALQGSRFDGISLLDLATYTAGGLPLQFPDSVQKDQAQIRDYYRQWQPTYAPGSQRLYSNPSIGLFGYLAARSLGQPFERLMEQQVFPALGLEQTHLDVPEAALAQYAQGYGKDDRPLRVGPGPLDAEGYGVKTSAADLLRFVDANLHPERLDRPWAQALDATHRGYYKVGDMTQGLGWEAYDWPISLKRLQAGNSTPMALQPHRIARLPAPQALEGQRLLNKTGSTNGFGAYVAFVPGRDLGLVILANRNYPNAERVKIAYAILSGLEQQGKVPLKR

[7] = read-out: Drug mg/L^a / DOR / AVI
[8] = read-out: Drug mg/L^a / CAR / TZB
[9] = read-out: Drug mg/L^a / MEM / FOX
[10] = read-out: Drug mg/L^a / ETP / CAZ
[11] = read-out: Drug mg/L^a / PIP / CLV
[12] = read-out: Drug mg/L^a / MEC / SUL
[13] = read-out: Drug mg/L^a / TIC / REL

T1 sequence (G3XD46 whole entry): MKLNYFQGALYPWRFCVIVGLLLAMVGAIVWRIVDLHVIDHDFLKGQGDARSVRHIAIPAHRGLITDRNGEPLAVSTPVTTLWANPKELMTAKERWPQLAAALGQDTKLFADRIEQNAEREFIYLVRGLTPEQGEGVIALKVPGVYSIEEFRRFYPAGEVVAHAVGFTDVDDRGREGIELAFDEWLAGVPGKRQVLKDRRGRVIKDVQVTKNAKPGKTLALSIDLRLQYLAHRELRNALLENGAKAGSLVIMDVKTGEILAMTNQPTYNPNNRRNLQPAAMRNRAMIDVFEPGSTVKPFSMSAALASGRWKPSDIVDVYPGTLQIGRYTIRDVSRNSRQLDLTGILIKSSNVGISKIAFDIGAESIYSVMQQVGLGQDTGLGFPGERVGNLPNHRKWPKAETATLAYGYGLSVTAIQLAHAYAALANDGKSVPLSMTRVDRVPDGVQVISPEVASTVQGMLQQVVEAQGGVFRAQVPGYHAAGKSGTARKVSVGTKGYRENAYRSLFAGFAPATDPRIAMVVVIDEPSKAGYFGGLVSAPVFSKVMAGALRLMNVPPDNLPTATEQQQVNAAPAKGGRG

Question: With `NC(=O)[C@@H]1CC[C@@H]2CN1C(=O)N2OS(=O)(=O)O` [avibactam] as the molecule, how does the IC50 [1, 7] read?
Answer: 38.8 µM

Question: And the IC50 [2, 7]?
Answer: 9.01 µM

Question: And the IC50 [3, 7]?
Answer: 12.4 µM

Question: What about the IC50 [4, 7] of the same molecule?
Answer: 23.7 µM

Question: What does the source list for `C[C@H]1[C@H](NC(=O)/C(=N\OC(C)(C)C(=O)O)c2csc(N)n2)C(=O)N1S(=O)(=O)O` [aztreonam]?
Answer: IC50 ([1]; read-out: Drug mg/L^a / ATM): 1.75 µM; IC50 ([2]; read-out: Drug mg/L^a / ATM): 3.1 µM; IC50 [5]: 0.184 µM; IC50 ([3]; read-out: Drug mg/L^a / ATM): 10.4 µM; IC50 ([4]; read-out: Drug mg/L^a / ATM): 17 µM

Question: Which results are given for `CC1(C)S[C@@H]2[C@H](NC(=O)C(C(=O)O)c3ccccc3)C(=O)N2[C@H]1C(=O)O` (some centres unmarked) [carbenicillin]?
Answer: IC50 [1, 8]: 9.01 µM; IC50 [3, 8]: 129 µM; IC50 [4, 8]: 85.4 µM

Question: With `CO/N=C(\C(=O)N[C@@H]1C(=O)N2C(C(=O)[O-])=C(C[N+]3(C)CCCC3)CS[C@H]12)c1csc(N)n1` [cefepime] as the molecule, how does the IC50 ([1]; read-out: IPM / FEP) read?
Answer: 0.437 µM

Question: And the IC50 ([2]; read-out: IPM / FEP)?
Answer: 0.52 µM

Question: What about the IC50 ([4]; read-out: IPM / FEP) of the same molecule?
Answer: 2 µM

Question: Which results are given for `CO[C@@]1(NC(=O)Cc2cccs2)C(=O)N2C(C(=O)O)=C(COC(N)=O)CS[C@@H]21` [cefoxitin]?
Answer: IC50 [1, 9]: 5390 µM; IC50 [2, 9]: 47.7 µM; FOX IC50 ([5]; lysed PAO1, covalent): 10.7 µg/mL; IC50 [3, 9]: 12.4 µM; IC50 [4, 9]: 4750 µM

Question: Which IC50 [1, 10] does the source give for `CC(C)(O/N=C(\C(=O)N[C@@H]1C(=O)N2C(C(=O)[O-])=C(C[n+]3ccccc3)CS[C@H]12)c1csc(N)n1)C(=O)O` [ceftazidime] here?
Answer: 0.567 µM

Question: What about the IC50 [2, 10] of the same molecule?
Answer: 0.585 µM

Question: What about the IC50 [5] of the same molecule?
Answer: 0.11 µM

Question: And the IC50 [4, 10]?
Answer: 2.73 µM

Question: `O=C(O)[C@H]1/C(=C/CO)O[C@@H]2CC(=O)N21` [clavulanic acid] was tested. Which IC50 [1, 11] did it give?
Answer: 30.5 µM

Question: What about the IC50 [2, 11] of the same molecule?
Answer: 21.8 µM

Question: What about the IC50 [3, 11] of the same molecule?
Answer: 18.1 µM

Question: And the IC50 [4, 11]?
Answer: 56.2 µM

Question: For `Cc1onc(-c2ccccc2Cl)c1C(=O)N[C@@H]1C(=O)N2[C@@H]1SC(C)(C)[C@@H]2C(=O)O` [cloxacillin], which “% reduction in hydrolysis rate at 500 mg/L” value [6] is on record?
Answer: > 95%

Question: How did the IC50 [1, 7] turn out when `C[C@@H](O)[C@H]1C(=O)N2C(C(=O)O)=C(S[C@@H]3CN[C@H](CNS(N)(=O)=O)C3)[C@H](C)[C@H]12` [doripenem] was run?
Answer: 1.05 µM

Question: What about the IC50 [2, 9] of the same molecule?
Answer: 0.0476 µM

Question: And the IC50 [5]?
Answer: 0.309 µM

Question: And the IC50 [3, 7]?
Answer: 2.14 µM

Question: What about the IC50 [4, 7] of the same molecule?
Answer: 0.69 µM

Question: With `C[C@@H](O)[C@H]1C(=O)N2C(C(=O)O)=C(S[C@@H]3CN[C@H](C(=O)Nc4cccc(C(=O)O)c4)C3)[C@H](C)[C@H]12` [ertapenem] as the molecule, how does the IC50 [1, 10] read?
Answer: 1.14 µM

Question: And the IC50 [2, 10]?
Answer: 0.105 µM

Question: What about the IC50 [5] of the same molecule?
Answer: 0.4 µM

Question: What about the IC50 [3, 10] of the same molecule?
Answer: 1.7 µM

Question: And the IC50 [4, 10]?
Answer: 0.673 µM

Question: Which IC50 ([2]; read-out: IPM / FEP) does the source give for `C[C@@H](O)[C@H]1C(=O)N2C(C(=O)O)=C(SCCN=CN)C[C@H]12` [imipenem] here?
Answer: 0.0334 µM

Question: What about the IC50 ([3]; read-out: IPM / FEP) of the same molecule?
Answer: 0.2 µM

Question: And the IC50 ([4]; read-out: IPM / FEP)?
Answer: 0.2 µM

Question: How did the IC50 [2, 12] turn out when `CC1(C)S[C@@H]2[C@H](N=CN3CCCCCC3)C(=O)N2[C@H]1C(=O)O` [mecillinam] was run?
Answer: 648 µM

Question: What about the IC50 [3, 12] of the same molecule?
Answer: 1300 µM

Question: What about the IC50 [4, 12] of the same molecule?
Answer: 870 µM

Question: Which IC50 [2, 9] does the source give for `C[C@@H](O)[C@H]1C(=O)N2C(C(=O)O)=C(S[C@@H]3CN[C@H](C(=O)N(C)C)C3)[C@H](C)[C@H]12` [meropenem] here?
Answer: 0.0522 µM

Question: And the IC50 [3, 9]?
Answer: 3.65 µM

Question: What about the IC50 [4, 9] of the same molecule?
Answer: 3.99 µM

Question: What does the source list for `CCN1CCN(C(=O)N[C@@H](C(=O)N[C@@H]2C(=O)N3[C@@H]2SC(C)(C)[C@@H]3C(=O)O)c2ccccc2)C(=O)C1=O` [piperacillin]?
Answer: IC50 [1, 11]: 1.7 µM; IC50 [2, 11]: 3.23 µM; IC50 [5]: 0.0966 µM; IC50 [3, 11]: 6.09 µM; IC50 [4, 11]: 4.21 µM

Question: Which IC50 [1, 13] does the source give for `O=C(NC1CCNCC1)[C@@H]1CC[C@@H]2CN1C(=O)N2OS(=O)(=O)O` [relebactam] here?
Answer: 12.2 µM

Question: What about the IC50 [2, 13] of the same molecule?
Answer: 24.4 µM

Question: And the IC50 [3, 13]?
Answer: 81.7 µM

Question: What about the IC50 [4, 13] of the same molecule?
Answer: 17.1 µM

Question: For `CC1(C)[C@H](C(=O)O)N2C(=O)C[C@H]2S1(=O)=O` [sulbactam], which IC50 [1, 12] is on record?
Answer: 9.09 µM

Question: And the IC50 [2, 12]?
Answer: 12.4 µM

Question: And the IC50 [3, 12]?
Answer: 8.96 µM

Question: And the IC50 [4, 12]?
Answer: 19.2 µM

Question: For `C[C@]1(Cn2ccnn2)[C@H](C(=O)O)N2C(=O)C[C@H]2S1(=O)=O` [tazobactam], which IC50 [1, 8] is on record?
Answer: 13.4 µM

Question: And the IC50 [2, 8]?
Answer: 15.9 µM

Question: What about the IC50 [3, 8] of the same molecule?
Answer: 15.9 µM

Question: What about the IC50 [4, 8] of the same molecule?
Answer: 11.9 µM

Question: Which IC50 [1, 13] does the source give for `CC1(C)S[C@@H]2[C@H](NC(=O)[C@H](C(=O)O)c3ccsc3)C(=O)N2[C@H]1C(=O)O` [ticarcillin] here?
Answer: 6.4 µM

Question: And the IC50 [3, 13]?
Answer: 682 µM

Question: And the IC50 [4, 13]?
Answer: 51.5 µM

Source: publication PMC12802951, “Unravelling the triad of penicillin-binding proteins, β-lactamase activity, and mRNA dynamics in Pseudomonas aeruginosa AmpC induction” (Journal of Antimicrobial Chemotherapy, 2025)
